Experimental data reported in article PMC12015293 (Communications Biology, 2025).

System: osteoclastogenesis of bone marrow-derived monocyte/macrophage precursor cells (BMMs)
Experiment: RANKL-induced osteoclast differentiation of BMMs
Assay type: cell-based, mouse (C57BL/6)
Conditions: 10 μM, late stage

With `C[S+]([O-])c1ccc(-c2nc(-c3ccncc3)c(-c3ccc(F)cc3)[nH]2)cc1` (stereo not shown) [SB203580] the “effect of p38 inhibitor on osteoclastogenesis” value was “also inhibited osteoclastogenesis”.
